Among the data in PubChem BioAssay AID1117319 (Southern Research Institute, 2015) are IC50 values, retold here.

Each structure is given as a SMILES string. Inconclusive results are not listed. Bounds are passed on as bounds.

The experiment addresses Virion infectivity factor (Human immunodeficiency virus type 1 group M subtype B (isolate BH10)) + Virion infectivity factor (Human immunodeficiency virus type 1 group M subtype B (isolate BRU/LAI)) + Virion infectivity factor (Human immunodeficiency virus type 1 group M subtype B (isolate PCV12)) + Virion infectivity factor (Human immunodeficiency virus type 1 group M subtype B (isolate HXB2)) + DNA dC->dU-editing enzyme APOBEC-3G (Homo sapiens) (UniProt P69720+P69721+P69722+P69723+Q9HC16). In words: HIV-1 Vif–A3G interaction blockers – biochemical, TR-FRET, GST-Vif 1-94, biotin-A3G peptide, dose response retest, primary screen (AID 1117319).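 Also: Vif residues 1-94 fused to GST binding biotinylated APOBEC3G peptide 110-148.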 The conditions noted are these: TR-FRET GST-Vif / biotin-A3G peptide binding. In general terms: TR-FRET usually uses a lanthanide donor and a delayed reading to cut background.
The IC50 is the concentration at which inhibition is half-maximal. With `O=[N+]([O-])c1c(NCCCO)cc(SCc2ccco2)c2nonc12`, the half-inhibitory concentration (IC50) was 4.65 µM.
Regarding `CC(C)NC(=O)c1cc(-c2ccco2)nn1-c1ccc(Cl)cc1`, the IC50 is 13.5 µM.
Consider `O=C(Nc1cccc(C(F)(F)F)c1)c1ccc2nc(-c3ccco3)c(-c3ccco3)nc2c1`, for which the IC50 was 0.69 µM.
Next, `Nc1c(C(=O)NC2CC2)sc2nc3c(c(-c4ccco4)c12)CC/C3=C/c1ccco1`: less than 0.195 µM; `CCOC(=O)CSc1nc2c(sc(=S)n2-c2ccccc2OC)c(=O)n1Cc1ccco1`: 27.2 µM.
Next, `Cc1ccc(-c2cc(-c3ccc4c(c3)OCO4)c(C#N)c(N)n2)o1`: 7.11 µM.
Consider `O=C1CCC/C1=C/Nc1ccc2c(c1)OCO2`, for which the IC50 is 2.09 µM.
Next, `Cc1cc(/C=C2\C(=O)NC(=O)N(c3cccc(F)c3)C2=O)c(C)n1-c1cc(C(=O)O)cc(C(=O)O)c1`: 10.2 µM; `O=S(=O)(O)c1cc(O)c2cc(Nc3ccccc3)ccc2c1`: 2.3 µM; `Cc1nc2cc(-c3ccsc3-n3c(C)ccc3C)[nH]n2c(=O)c1Cl`: 2.92 µM.
Consider `O=S(=O)(O)c1cc(Cl)cc(N=Nc2ccc(O)cc2O)c1O`, for which the IC50 is 49.4 µM.
Then `CCN(CC)c1ccc(N=Cc2c(O)n(-c3ccc(Cl)cc3)c(=O)[nH]c2=O)cc1`, with 37.6 µM.
Next, `COc1ccc(OCCOC(=O)c2cccc(-n3cnnn3)c2)cc1`: 93.6 µM; `COC/C=C/C1=CC2=CC(=O)C(C)(OC(=O)C3CCCC3)C(=O)C2=CO1` (stereo not given): 2.75 µM; `COC(=O)CCC(=O)OC1(C)C(=O)C=C2C=C3CCCN3C=C2C1=O` (stereo not given): 2.23 µM.
Then `COC(=O)\C(C(C)=O)=C(/C=C/C=C/C=C/N(C)C)N(C)C`, with 2.76 µM.
`CN1C(=O)/C(=C/c2ccco2)SC1=Nc1cccc(C(=O)O)c1`: the IC50 was 19 µM.
Then `NC(CO)C(=O)NNCc1ccc(O)c(O)c1O` (stereo not given), with 1.49 µM; and `Cc1cccc(N/N=C/c2ccc(O)c(O)c2O)c1`, with 9.51 µM; and `COc1cccc(N2C(=O)NC(=O)/C(=C/c3ccc([N+](=O)[O-])s3)C2=O)c1`, with 7.18 µM.
Then `O=C1CCCC2=C1C(c1ccco1)Nc1ccc3ccccc3c12` (stereo not given), with 4.21 µM; and `COc1cc(CN2CCNC(=O)C2CC(=O)N(Cc2nccn2C)C(C)C)cc(OC)c1` (stereo not given), with 28.3 µM; and `O=C1CC(c2ccco2)CC(O)=C1C=Nc1cc(Cl)ccc1Cl` (stereo not given), with 4.07 µM.
On to `CC1(C)Cc2nc3sc4c(SCC(=O)NCc5ccco5)ncnc4c3cc2CO1`, for which the IC50 is 79.5 µM.
`O=C(NC1CC1)c1cc(-c2ccco2)nc2ccccc12`: the IC50 is 2.53 µM.
Then `CCCC1=NN2C(=N)/C(=C\c3ccc(SCc4ccco4)o3)C(=O)N=C2S1`, with 8.14 µM; and `O=C1/C(=C/C=C/c2ccco2)SC(=S)N1c1ccc(O)cc1`, with 2.57 µM.
Then `N=C1/C(=C/c2ccc(Br)o2)C(=O)N=C2SC(CC(=O)N3CCCC3)=NN12`, with 27.8 µM; and `Cc1cccn2c(=O)c3cc(C(=O)NCc4ccco4)c(=N)n(CCc4ccccc4)c3nc12`, with 34 µM.
Next, `CC(C)C(=O)Nc1nnc(Sc2ccc(N(C)C)cc2)s1`: 54.8 µM; `O=C(Nc1ccc(Br)cn1)c1coc(=O)c(Br)c1`: 13 µM.
For `CCCC(=O)N(CCc1ccc(OC)cc1)Cc1nc2ccccc2c(=O)[nH]1`, the IC50 was 14.4 µM.
Then `O=C1C(Cl)=C(N2CCOCC2)C(=O)N1c1ccccc1`, with 2.18 µM; and `Cc1cc(C(=O)CSc2nnnn2-c2ccccc2)c(C)n1CC1CCCO1` (stereo not given), with 9.78 µM.
In the case of `Cc1ccc(N2C(=O)NC(=O)/C(=C\C=C\c3ccco3)C2=O)cc1`, the IC50 is 8.48 µM.
Regarding `Cc1ccc(N/N=C/c2c(C)c(C#N)c(=O)n(C)c2O)cc1C`, the IC50 is 91.3 µM.
Then `COc1ccc(S(=O)(=O)N(C(C)=O)c2ccc3oc(=O)sc3c2)cc1`, with 88.4 µM; and `COc1cc(CNc2ccc(O)cc2)cc(Br)c1OCc1ccccc1`, with 3.04 µM.
Next, `C=CCn1c(SCC(=O)NCCCC)nc2scc(-c3ccco3)c2c1=O`: 20.4 µM.
Next, `Cc1cc(-c2csc(NC(=O)c3cc4ccccc4o3)n2)c(C)n1C`: 48.7 µM; `O=C(NCc1ccco1)c1cc(-c2cccc(Cl)c2)on1`: 36.9 µM; `Cc1ccc(S(=O)(=O)Cn2nnnc2C(CC(C)C)N2CCN(C)CC2)cc1` (stereo not given): 9.85 µM.
On to `CC(C)Nc1ccc(Nc2ccccc2)cc1`, for which the IC50 was 9.18 µM.
Next, `CCOC(=O)c1sc2nc(CC(=O)OC)nc(NCc3ccco3)c2c1C`: 2.44 µM.
Next, `Cc1onc(-c2c(F)cccc2Cl)c1C(=O)Nc1nnc(C2CC2)s1`: 10.7 µM; `Nc1ccc2c(O)cc(S(=O)(=O)O)cc2c1`: 9.44 µM; `COc1cc(C(=O)OCCN2CCCCC2)ccc1O`: 45.4 µM.
Then `Cc1noc(/C=C/c2ccco2)c1S(=O)(=O)N1CCC(C(=O)N2c3ccccc3CC2C)CC1` (stereo not given), with 11.9 µM; and `CCOC(=O)C1=C(O)/C(=C\c2ccc(CNC(=O)C(=O)Nc3ccccc3)o2)N=C1C`, with 1.86 µM; and `O=C(CN1C(=O)NC2(CCCCCCC2)C1=O)NCc1cccs1`, with 11.1 µM.
Take `O=C(CSc1nc(-c2ccco2)cc(C(F)(F)F)n1)N1CCc2ccccc2C1`: the IC50 was 22.8 µM.
On to `O=C(Nc1nc(-c2ccco2)c(-c2ccco2)s1)c1ccc(F)cc1F`, for which the IC50 was 85.4 µM.
As to `Cc1ccc(/C=C2\SC(=S)N(c3cccnc3)C2=O)o1`, the IC50 was 6.87 µM.
Next, `CC1OC(OCC2OC(Oc3c(-c4ccc(O)cc4)oc4cc(O)cc(O)c4c3=O)C(O)C(O)C2O)C(O)C(O)C1O` (stereo not given): 11.8 µM; `CCC(Cc1ccccc1)NC(=O)C1CCN(S(=O)(=O)c2c(C)noc2C)CC1` (stereo not given): 91 µM.
Then `COc1ccc(NC(=O)N2c3ccc(OC)cc3C(C)=CC2(C)C)cc1`, with 3.27 µM.
In the case of `Cc1c(O)cc2c(c1O)C(=O)CC(c1ccc(O)cc1)O2` (stereo not given), the IC50 is 2.68 µM.
Next, `CCN1CCN(C2=NC(=O)/C(=C/c3ccc(C)o3)S2)CC1`: 3.48 µM; `O=C1NC(=S)S/C1=C\c1ccc(SCc2ccco2)o1`: 0.81 µM; `O=C1NC(=O)N(Cc2ccccc2)C(=O)/C1=C\C=C\c1ccco1`: 4 µM.
Then `CCCCC1=CC2=CC(=O)C(C)(OC(=O)c3cnc4ccccc4n3)C(=O)C2=CO1` (stereo not given), with 12.4 µM; and `Cc1ccc(N2C(=O)/C(=C/c3ccc(CN(CCC#N)S(C)(=O)=O)o3)C(=O)NC2=S)cc1`, with 8.32 µM; and `COc1ccc(S(=O)(=O)c2c(N)n(Cc3ccco3)c3nc4ccccc4nc23)cc1`, with 3.47 µM.
Next, `CC1(C)C/C(=C(/C#N)C(N)=O)CCO1`: 80.7 µM.
Consider `Oc1ccc(C2Nc3cccc4cccc(c34)N2)c(O)c1`, for which the IC50 is 17.5 µM.
Next, `Cc1[nH]c2ccccc2c1Cc1nnc(SCc2ccccc2)o1`: 70.8 µM.
Next, `O=c1[nH]c(=S)[nH]c2c1C(c1ccc(Br)cc1)c1c([nH]c(=S)[nH]c1=O)O2`: 41.1 µM; `Cc1c(C(=O)O)cccc1-n1c(C)cc(/C=N/Nc2ccc([N+](=O)[O-])cn2)c1C`: 12.6 µM.
Next, `Cc1oc(/N=C/c2cccc3ccccc23)c(C#N)c1C`: 52.7 µM; `O=C(O)Cc1cccc(=O)c(O)c1C(=O)O`: 8.19 µM.
Turning to `NS(=O)(=O)c1ccc(N/N=C/c2ccc(O)c(O)c2O)c([N+](=O)[O-])c1`, the IC50 was 0.92 µM.
Turning to `O=C(O)c1ccc2c(c1)[C@@H]1C=CC[C@@H]1[C@H](c1ccccn1)N2`, the IC50 is 1.05 µM.
Then `Cc1cc(/C=C2\SC(=S)NC2=O)c(C)n1-c1ccccc1`, with 14.1 µM; and `O=C1NC(=S)SC1=C1CCCC1`, with 6.2 µM; and `CCN(CC)S(=O)(=O)c1ccc(/C=C/C(=O)Nc2ccc(N3CCOCC3)cc2)cc1`, with 55.7 µM.
Take `Oc1cccc(C=NCc2ccccc2)c1O`: the IC50 was 1.9 µM.
Then `CCc1cc(=O)n2[nH]c(C)c(-c3ccccc3OC)c2n1`, with 4.38 µM; and `COc1cccc(C(C#N)N2CCCCC2)c1O` (stereo not given), with 79.2 µM; and `COc1ccc(C(=O)N/N=C/C23CC[C@@H](O)CC2(O)CC[C@@H]2[C@@H]3CCC3(C)C(C4=CC(=O)OC4)CCC23O)cc1` (stereo not given in full), with 86.3 µM.
For `CC(=O)c1ccc(NC(=O)c2ccc3nc(-c4ccco4)c(-c4ccco4)nc3c2)cc1`, the IC50 is 1.38 µM.
Then `O=C(NCc1ccccn1)c1ccc2nc(-c3ccco3)c(-c3ccco3)nc2c1`, with 0.45 µM.
In the case of `Nc1ncnc2oc(-c3ccco3)c(-c3ccco3)c12`, the IC50 is 0.55 µM.
Consider `CCCCOc1ccc(C(=O)NCC(=O)NCC(=O)OCC)cc1`, for which the IC50 was 76.9 µM.
Turning to `CCC(C)(C)n1nnnc1C(c1cc2cc(C)ccc2[nH]c1=O)N1CCCc2ccccc21` (stereo not given), the IC50 was 93.5 µM.
Then `Cc1nc(C)c(C(=O)Nc2nc3c(C)cccc3s2)o1`, with 32 µM.
Next, `CN1CCN(S(=O)(=O)c2ccc(NC(=S)NC(=O)c3ccc(Cl)cc3)cc2)CC1`: 80.7 µM; `O=C(/C=C/c1cccs1)N1CCN(c2ccc(O)cc2)CC1`: 20.9 µM.
Next, `c1ccc(CSc2nnc(-c3ccco3)c(-c3ccco3)n2)cc1`: 6.93 µM; `O=C1/C(=C/c2ccco2)Oc2c1ccc(O)c2CN1CCCCC1`: 1.36 µM; `N#C/C(=C/c1ccc(N2CCCCCC2)o1)c1cccc(F)c1`: 24.6 µM.
On to `O=C(O)c1ccc(-n2cccc2/C=C2/NC(=O)N(c3cccc(Cl)c3)C2=O)cc1`, for which the IC50 was 1.71 µM.
Next, `CC1(C)N([O-])c2cc([N+](=O)[O-])ccc2[N+]1=O`: 9.68 µM; `Cc1cc(-c2nc3c4c5c(sc4[nH]c(=O)n3n2)CCC5)c(C)o1`: 0.69 µM.
Then `O=C1C=CC(=O)c2c(O)c(CO)c(CO)c(O)c21`, with 0.47 µM.
Next, `COc1ccc(NC2CS(=O)(=O)CC2NCc2ccco2)cc1` (stereo not given): 62.7 µM.
